{"source": "patent EP0054578A1", "about": "“N-(substituted chromone-3-carbonyl)-phenylglycine derivatives” (Eisai Co., Ltd., priority 1980, dated 1982)", "test_in_all_cases": "Antibacterial activity (MIC)", "type_in_all_cases": "cell-based", "key": {"[1]": {"test_system": "Escherichia coli NIHJ"}, "[2]": {"test_system": "Klebsiella pneumoniae EK-6", "settings": "EK6"}, "[3]": {"test_system": "Proteus morganii EP-14", "settings": "Morganella morganii, EP14"}, "[4]": {"test_system": "Pseudomonas aeruginosa EP-172", "settings": "EP172"}, "[5]": {"test_system": "Serratia marcescens ES-75", "settings": "ES75"}, "[6]": {"test_system": "Staphylococcus aureus 209-P"}}}
{"smiles": "CCOC(=O)Oc1cc2occ(C(=O)N[C@@H](C(=O)N[C@@H]3C(=O)N4C(C(=O)O)=C(CSc5nnnn5CC(=O)O)CS[C@H]34)c3ccc(O)cc3)c(=O)c2cc1OC(=O)OCC", "note": "[Preparatory Example 2 A, 7β-[D-2-{6,7-bis(ethoxycarbonyloxy)chromone-3-carboxamido}-2-(4-hydroxyphenyl)acetamido]-3-[(1-carboxymethyl-5-tetrazolyl)thiomethyl]-3-cephem-4-carboxylic acid]", "values": [{"measurement": "MIC", "setting": "[1]", "result": 0.4, "unit": "µg/mL"}, {"measurement": "MIC", "setting": "[2]", "result": "≤ 0.05", "unit": "µg/mL"}, {"measurement": "MIC", "setting": "[3]", "result": 1.56, "unit": "µg/mL"}, {"measurement": "MIC", "setting": "[4]", "result": 0.8, "unit": "µg/mL"}, {"measurement": "MIC", "setting": "[5]", "result": "≤ 0.05", "unit": "µg/mL"}, {"measurement": "MIC", "setting": "[6]", "result": 6.25, "unit": "µg/mL"}]}
{"smiles": "O=C(O)Cn1nnnc1SCC1=C(C(=O)O)N2C(=O)[C@@H](NC(=O)[C@H](NC(=O)c3coc4cc(O)c(O)cc4c3=O)c3ccc(O)cc3)[C@H]2SC1", "note": "[Preparatory Example 2 B, 7β-[D-2-(6,7-Dihydroxychromone-3-carboxyamido)-2-(4-hydroxyphenyl)acetamido]-3-[(1-carboxymethyl-5-tetrazolyl)thiomethyl]-cephem-4-carboxylic acid]", "values": [{"measurement": "MIC", "setting": "[1]", "result": 0.4, "unit": "µg/mL"}, {"measurement": "MIC", "setting": "[2]", "result": "≤ 0.1", "unit": "µg/mL"}, {"measurement": "MIC", "setting": "[3]", "result": 12.5, "unit": "µg/mL"}, {"measurement": "MIC", "setting": "[4]", "result": 0.8, "unit": "µg/mL"}, {"measurement": "MIC", "setting": "[5]", "result": "≤ 0.1", "unit": "µg/mL"}, {"measurement": "MIC", "setting": "[6]", "result": 3.13, "unit": "µg/mL"}]}
